We go through 42 compounds from patent US20250313563A1, “GLYCOGEN SYNTHASE KINASE 3 INHIBITORS AND USES THEREOF” (The Broad Institute, Inc., priority 2022, published 2025).

Where two headings read alike, the source gives them in different places. Bounds are passed on as bounds.

For experiment [1], the target named is GSK3α (GST-full length GSK3α) (Homo sapiens (Human), UniProt P49840). Put plainly: GSK3α TR-FRET kinase assay. Type of experiment: biochemical. The method, boiled down: (§1)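 Full-length GST-tagged human enzyme (1 nM) is exposed to test compound for 30 min before substrates are added. Phosphorylation of a primed biotinylated glycogen synthase peptide proceeds 100 min at room temperature at low ATP (4 μM α; 2 μM β) or high ATP (1 mM). Product is quantified by TR-FRET.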

The target of experiment [2] is GSK3b (GST-full length GSK3b) (Homo sapiens (Human), UniProt P49841). Put plainly: GSK3b TR-FRET kinase assay. Type of experiment: biochemical. The method, boiled down: as §1
Setting [3] is: 1 nM GSK3α, 4 μM ATP, 30 minute preincubation, geometric mean, read-out: GSK3-A TR-FRET BIOCHEMICAL (TR-FRET), GMean, IC50.
[4] abbreviates: 1 nM GSK3b, 2 μM ATP, 30 minute preincubation, geometric mean, read-out: GSK3-B TR-FRET BIOCHEMICAL (TR-FRET), GMean, IC50.
Setting [5] is: read-out: GSK3-A (TR-FRET 1 mM ATP), GMean, IC50, 1 mM ATP, geometric mean.
[6] abbreviates: read-out: GSK3-B (TR-FRET 1 mM ATP), GMean, IC50, 1 mM ATP, geometric mean.
Where [7] appears, read: 1 nM GSK3α, 4 μM ATP, 30 minute preincubation, Table 16, read-out: GSK3-A TR-FRET BIOCHEMICAL (TR-FRET).
The mark [8] stands for this setting: 1 nM GSK3b, 2 μM ATP, 30 minute preincubation, Table 16, read-out: GSK3-B TR-FRET BIOCHEMICAL (TR-FRET).

Sequence of GSK3b (GST-full length GSK3b) (P49841 whole entry): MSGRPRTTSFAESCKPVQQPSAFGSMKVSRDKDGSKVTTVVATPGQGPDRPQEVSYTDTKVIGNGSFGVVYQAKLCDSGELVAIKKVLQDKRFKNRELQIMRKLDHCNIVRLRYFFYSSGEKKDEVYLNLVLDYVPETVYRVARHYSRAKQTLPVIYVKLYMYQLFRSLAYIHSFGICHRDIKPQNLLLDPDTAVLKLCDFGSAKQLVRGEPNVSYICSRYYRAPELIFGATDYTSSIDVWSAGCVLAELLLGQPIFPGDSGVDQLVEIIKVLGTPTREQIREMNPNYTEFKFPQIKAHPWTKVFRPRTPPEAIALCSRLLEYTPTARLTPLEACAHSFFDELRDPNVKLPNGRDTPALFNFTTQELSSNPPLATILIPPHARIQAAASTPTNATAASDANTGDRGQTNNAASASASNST
Sequence of GSK3α (GST-full length GSK3α) (P49840 whole entry): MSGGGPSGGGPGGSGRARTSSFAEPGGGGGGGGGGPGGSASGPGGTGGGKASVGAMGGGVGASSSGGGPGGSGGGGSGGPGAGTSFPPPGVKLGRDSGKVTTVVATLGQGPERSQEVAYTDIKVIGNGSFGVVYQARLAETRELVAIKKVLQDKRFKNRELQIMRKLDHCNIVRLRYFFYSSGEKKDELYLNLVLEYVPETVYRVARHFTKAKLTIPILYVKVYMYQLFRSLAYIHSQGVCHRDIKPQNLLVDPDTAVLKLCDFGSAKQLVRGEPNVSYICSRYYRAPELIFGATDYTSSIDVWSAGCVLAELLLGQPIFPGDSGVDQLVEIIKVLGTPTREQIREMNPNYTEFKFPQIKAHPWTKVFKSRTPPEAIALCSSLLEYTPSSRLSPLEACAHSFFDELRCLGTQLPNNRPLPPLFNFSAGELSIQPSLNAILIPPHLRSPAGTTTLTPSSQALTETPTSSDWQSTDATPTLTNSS

As for `CC[C@@]1(c2cccc(-c3ccnc4cc(Cl)c(C)cc34)c2)C2=C(CC(C)(C)NC2=O)Nc2n[nH]cc21` [Compound 948645], the values for the IC50 in experiment [1] (setting [3]) and in experiment [2] (setting [4]) were 100 to 1000 nM and more than 5000 nM, respectively.
In the same order, the values of `CC[C@@]1(c2cccc(-c3cc(OC)nc4ccccc34)c2)C2=C(CC(C)(C)NC2=O)Nc2n[nH]cc21` [Compound 948647] are more than 5000 nM and more than 5000 nM.
In the same order, the values of `CCC1(c2cccc(-c3ccncc3C)c2)C2=C(CC3(CCOC3)NC2=O)Nc2n[nH]cc21` (stereo not shown) [Compound 948648] are more than 5000 nM and more than 5000 nM.
As to `CCC1(c2cccc(-c3ccnc4cc(OC)ccc34)c2)C2=C(CC(C)(C)NC2=O)Nc2n[nH]cc21` (stereo not shown) [Compound 948649], the IC50 in experiment [1] (setting [3]) and in experiment [2] (setting [4]) was more than 5000 nM each time.
As for `CC[C@@]1(c2cccc(-c3ccnc4c(Cl)cccc34)c2)C2=C(CC(C)(C)NC2=O)Nc2n[nH]cc21` [Compound 948650], the IC50 in experiment [1] (setting [3]) and in experiment [2] (setting [4]) was more than 5000 nM in each case.
For the compound `CCC1(c2cccc(-c3ccnc4ccc(C)cc34)c2)C2=C(CC(C)(C)NC2=O)Nc2n[nH]cc21` (stereo not shown) [Compound 948651], the IC50 in experiment [1] (setting [3]) and in experiment [2] (setting [4]) was more than 5000 nM each time.
As to `CCC1(c2cccc(-c3ccnc(N4CCOCC4)c3)c2)C2=C(CC(C)(C)NC2=O)Nc2n[nH]cc21` (stereo not shown) [Compound 948653], the IC50 in experiment [1] (setting [3]) and in experiment [2] (setting [4]) was not above 100 nM each time.
For the compound `CCC1(c2cccc(-c3ccnc4cc(Cl)c(C)cc34)c2)C2=C(CC(C)(C)NC2=O)Nc2n[nH]cc21` (stereo not shown) [Compound 948654], the IC50 in experiment [1] (setting [3]) and in experiment [2] (setting [4]) was more than 5000 nM throughout.
As to `CCC1(c2cccc(-c3ccncc3OC3CC3)c2)C2=C(CC(C)(C)NC2=O)Nc2n[nH]cc21` (stereo not shown) [Compound 948656], the IC50 in experiment [1] (setting [3]) and in experiment [2] (setting [4]) was more than 5000 nM in each case.
As for `CCc1cnccc1-c1cccc(C2(CC)C3=C(CC(C)(C)NC3=O)Nc3n[nH]cc32)c1` (stereo not shown) [Compound 948657], the IC50 in experiment [1] (setting [3]) and in experiment [2] (setting [4]) was more than 5000 nM in each case.
Consider `CC[C@@]1(c2cccc(-c3ccnc4ccc(C)cc34)c2)C2=C(CC(C)(C)NC2=O)Nc2n[nH]cc21` [Compound 948658], for which the IC50 in experiment [1] (setting [3]) and in experiment [2] (setting [4]) was more than 5000 nM each time.
For the compound `CCC1(c2cccc(-c3ccnc4c(Cl)cccc34)c2)C2=C(CC(C)(C)NC2=O)Nc2n[nH]cc21` (stereo not shown) [Compound 948659], the IC50 in experiment [1] (setting [3]) and in experiment [2] (setting [4]) was more than 5000 nM each time.
As for `CCC1(c2cccc(-c3ccnc4cc(OC)ccc34)c2)C2=C(CC(C)(C)NC2=O)Nc2n[nH]cc21` (stereo not shown) [Compound 948661], the IC50 in experiment [1] (setting [3]) is not above 100 nM; in experiment [2] (setting [4]), 100 to 1000 nM.
For `CCC1(c2cccc(-c3ccnc(N4CCCCC4)c3)c2)C2=C(CC(C)(C)NC2=O)Nc2n[nH]cc21` (stereo not shown) [Compound 948663], the IC50 in experiment [1] (setting [3]) and in experiment [2] (setting [4]) was more than 5000 nM throughout.
Turning to `CCC1(c2cccc(-c3cc(C)ncc3F)c2)C2=C(CC(C)(C)NC2=O)Nc2n[nH]c(C)c21` (stereo not shown) [Compound 948761], the IC50 in experiment [1] (setting [3]) and in experiment [2] (setting [4]) was not above 100 nM in each case.
For `CCC1(c2cccc(OC)c2)C2=C(CC(C)(C)NC2=O)Nc2n[nH]c(C)c21` (stereo not shown) [Compound 948763], the IC50 in experiment [1] (setting [3]) is not above 100 nM; in experiment [2] (setting [4]), 100 to 1000 nM.
In the same order, the values of `CCC1(c2cccc(Oc3ncccn3)c2)C2=C(CC(C)(C)NC2=O)Nc2n[nH]cc21` (stereo not shown) [Compound 948764] are not above 100 nM and 100 to 1000 nM.
In the same order, the values of `CCC1(c2cccc(-c3cc(C)nnc3C)c2)C2=C(CC(C)(C)NC2=O)Nc2n[nH]c(C)c21` (stereo not shown) [Compound 948765] are not above 100 nM and not above 100 nM.
In the same order, the values of `CCC1(c2cccc(-c3cnn(C)c3)c2)C2=C(CC(C)(C)NC2=O)Nc2n[nH]c(Cl)c21` (stereo not shown) [Compound 948767] are not above 100 nM and not above 100 nM.
`CCC1(c2cccc(-c3cn(C)nc3C)c2)C2=C(CC(C)(C)NC2=O)Nc2n[nH]c(Cl)c21` (stereo not shown) [Compound 948768]: the IC50 in experiment [1] (setting [3]) and in experiment [2] (setting [4]) was not above 100 nM in each case.
For the compound `CC[C@]1(c2cccc(-c3ccnc4c3CCC4)c2)C2=C(CC(C)(C)NC2=O)Nc2n[nH]c(C(F)(F)F)c21` [Compound 948769], the IC50 in experiment [1] (setting [3]) and in experiment [2] (setting [4]) was 100 to 1000 nM in each case.
Regarding `CC[C@]1(c2cccc(-c3ccncc3F)c2)C2=C(CC(C)(C)NC2=O)Nc2[nH]nc(C(F)(F)F)c21` [Compound 948770], the IC50 in experiment [1] (setting [3]) and in experiment [2] (setting [4]) was 100 to 1000 nM each time.
As for `CC[C@]1(c2cccc(S(=O)(=O)C3CC3)c2)C2=C(CC(C)(C)NC2=O)Nc2[nH]nc(C(F)(F)F)c21` [Compound 948771], the IC50 in experiment [1] (setting [3]) is not above 100 nM; in experiment [1] (setting [5]) it was not above 100 nM; in experiment [2] (setting [4]) it was not above 100 nM; in experiment [2] (setting [6]) it was 100 to 1000 nM.
Regarding `CCC1(c2cccc(-c3ccnc(C)c3)c2)C2=C(CC(C)(C)NC2=O)Nc2n[nH]c(C(F)(F)F)c21` (stereo not shown) [Compound 948773], the results for the IC50 in experiment [1] (setting [3]) and in experiment [2] (setting [4]) were 1000 to 5000 nM and more than 5000 nM, respectively.
In the same order, the values of `CC[C@@]1(c2cccc(-c3ccnc(C)c3)c2)C2=C(CC(C)(C)NC2=O)Nc2n[nH]c(C(F)(F)F)c21` [Compound 948774] are not above 100 nM and not above 100 nM.
Turning to `CC[C@@]1(c2cccc(-c3cnn4c3CCCC4)c2)C2=C(CC(C)(C)NC2=O)Nc2[nH]nc(C(F)(F)F)c21` [Compound 948775], the IC50 was not above 100 nM in experiment [1] (setting [3]); not above 100 nM in experiment [1] (GSK3-A (TR-FRET 1 mM ATP), GMean, IC50, 1 mM ATP, geometric mean); not above 100 nM in experiment [2] (setting [4]); 100 to 1000 nM in experiment [2] (GSK3-B (TR-FRET 1 mM ATP), GMean, IC50, 1 mM ATP, geometric mean).
Take `CCC1(c2cccc(S(=O)(=O)C3CC3)c2)C2=C(CC(C)(C)NC2=O)Nc2n[nH]c(C(F)(F)F)c21` (stereo not shown) [Compound 948776]: the IC50 in experiment [1] (setting [3]) and in experiment [2] (setting [4]) was 100 to 1000 nM in each case.
Turning to `CC[C@@]1(c2cccc(-c3ccncc3F)c2)C2=C(CC(C)(C)NC2=O)Nc2[nH]nc(C(F)(F)F)c21` [Compound 948777], the IC50 in experiment [1] (setting [3]) and in experiment [2] (setting [4]) was not above 100 nM each time.
Consider `CCC1(c2cccc(C3CN(C(C)=O)C3)c2)C2=C(CC(C)(C)CC2=O)Nc2n[nH]cc21` (stereo not shown) [Compound 948779], for which the IC50 in experiment [1] (setting [7]) is 1000 to 5000 nM; in experiment [2] (setting [8]), more than 5000 nM.
For `CCC1(c2cccc(OCC(F)F)c2)C2=C(CC(C)(C)CC2=O)Nc2n[nH]cc21` (stereo not shown) [Compound 948793], the IC50 in experiment [1] (setting [7]) is not above 100 nM; in experiment [1] (setting [5]), 100 to 1000 nM; in experiment [2] (setting [8]), not above 100 nM; in experiment [2] (setting [6]), more than 5000 nM.
For the compound `CC[C@@]1(c2cccc(-c3ccnc4c(F)cccc34)c2)C2=C(CC(C)(C)NC2=O)Nc2n[nH]cc21` [Compound 948813], the IC50 in experiment [1] (setting [3]) is 1000 to 5000 nM; in experiment [2] (setting [4]), more than 5000 nM.
In the same order, the values of `CC[C@@]1(c2cccc(-c3cnn(C)c3C#N)c2)C2=C(CC(C)(C)NC2=O)Nc2n[nH]cc21` [Compound 948814] are more than 5000 nM and more than 5000 nM.
In the case of `CC[C@]1(c2cccc(-c3cnn(C)c3C(F)(F)F)c2)C2=C(CC(C)(C)NC2=O)Nc2n[nH]cc21` [Compound 948815], the IC50 in experiment [1] (setting [3]) was not above 100 nM; in experiment [1] (setting [5]), 100 to 1000 nM; in experiment [2] (setting [4]) it was 100 to 1000 nM; in experiment [2] (setting [6]), more than 5000 nM.
On to `CC[C@@]1(c2cccc(-c3cnn(C(F)F)c3)c2)C2=C(CC(C)(C)NC2=O)Nc2n[nH]cc21` [Compound 948816], for which the IC50 in experiment [1] (setting [3]) and in experiment [2] (setting [4]) was more than 5000 nM each time.
Take `CC[C@@]1(c2cccc(-c3ccnc4c3cnn4C)c2)C2=C(CC(C)(C)NC2=O)Nc2n[nH]cc21` [Compound 948817]: the IC50 in experiment [1] (setting [3]) and in experiment [2] (setting [4]) was more than 5000 nM throughout.
With `CC[C@@]1(c2cccc(-c3c(C)c(C)nn3C)c2)C2=C(CC(C)(C)NC2=O)Nc2n[nH]cc21` [Compound 948818], the IC50 in experiment [1] (setting [3]) and in experiment [2] (setting [4]) was more than 5000 nM each time.
Take `CC[C@@]1(c2cccc(-c3ccnc4cnccc34)c2)C2=C(CC(C)(C)NC2=O)Nc2n[nH]cc21` [Compound 948819]: the values for the IC50 in experiment [1] (setting [3]) and in experiment [2] (setting [4]) were 1000 to 5000 nM and more than 5000 nM, respectively.
In the same order, the values of `CCC1(c2cccc(-c3cnn(C)c3C(F)(F)F)c2)C2=C(CC(C)(C)NC2=O)Nc2n[nH]cc21` (stereo not shown) [Compound 948826] are 1000 to 5000 nM and more than 5000 nM.
On the same counts, the results for `CCC1(c2cccc(-c3cnn(C)c3C#N)c2)C2=C(CC(C)(C)NC2=O)Nc2n[nH]cc21` (stereo not shown) [Compound 948827] are not above 100 nM and 100 to 1000 nM.
On the same counts, the results for `CC[C@@]1(c2cccc(-c3c(C)cncc3C)c2)C2=C(CC(C)(C)NC2=O)Nc2n[nH]cc21` [Compound 948829] are more than 5000 nM and more than 5000 nM.
On to `CCC1(c2cccc(-c3ccnc(C)c3)c2)C2=C(CC(C)(C)NC2=O)Nc2n[nH]c(Cl)c21` (stereo not shown) [Compound 948998], for which the IC50 is not above 100 nM in experiment [1] (setting [3]), 100 to 1000 nM in experiment [1] (setting [5]), not above 100 nM in experiment [2] (setting [4]) and 1000 to 5000 nM in experiment [2] (setting [6]).
Regarding `CCC1(c2cccc(-c3ccncc3F)c2)C2=C(CC(C)(C)NC2=O)Nc2n[nH]c(F)c21` (stereo not shown) [Compound 948999], the IC50 in experiment [1] (setting [3]) was not above 100 nM; in experiment [2] (setting [4]), 100 to 1000 nM.
